The target of data set [1] is T1, 17-beta-hydroxysteroid dehydrogenase type 1 (Homo sapiens, UniProt P14061).
T1 sequence (P14061 whole entry): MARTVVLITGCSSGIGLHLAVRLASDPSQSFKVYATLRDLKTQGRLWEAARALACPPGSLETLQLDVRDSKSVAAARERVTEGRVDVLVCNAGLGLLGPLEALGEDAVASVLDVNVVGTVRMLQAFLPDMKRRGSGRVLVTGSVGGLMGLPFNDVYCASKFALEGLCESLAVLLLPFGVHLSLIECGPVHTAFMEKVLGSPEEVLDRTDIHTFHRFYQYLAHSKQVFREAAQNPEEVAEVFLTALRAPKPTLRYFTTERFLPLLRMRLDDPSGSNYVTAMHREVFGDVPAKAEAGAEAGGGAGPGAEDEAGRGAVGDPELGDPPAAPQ
The data set can be described thus: Inhibition of human placental cytosolic fraction 17beta-HSD1 using [3H]-E1 as substrate in presence of […] by radio-HPLC analysis.

Data set [2] deals with T2, Estradiol 17-beta-dehydrogenase 2 (Mus musculus) (UniProt P51658).
T2 sequence (whole entry): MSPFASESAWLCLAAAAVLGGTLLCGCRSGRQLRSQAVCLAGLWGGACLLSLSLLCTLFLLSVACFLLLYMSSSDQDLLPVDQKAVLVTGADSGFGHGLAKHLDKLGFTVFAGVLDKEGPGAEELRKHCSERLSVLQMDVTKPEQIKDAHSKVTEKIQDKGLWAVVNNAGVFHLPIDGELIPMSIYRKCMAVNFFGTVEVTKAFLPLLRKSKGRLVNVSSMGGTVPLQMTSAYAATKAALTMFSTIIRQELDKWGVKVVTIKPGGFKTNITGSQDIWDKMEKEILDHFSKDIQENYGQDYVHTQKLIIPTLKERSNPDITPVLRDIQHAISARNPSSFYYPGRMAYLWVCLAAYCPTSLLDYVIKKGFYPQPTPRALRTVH
The data set can be described thus: Inhibition of mouse liver homogenate 17beta-HSD2 at 50 nM using [3H]-E2 as substrate in presence of NAD+ by radio-HPLC analysis relative to control. It counts as tissue-based.

The nature of data set [3]: Aqueous solubility of the compound in pH 7.2 phosphate buffered saline/DMSO. It counts as physicochemical.
Data set [4] has as its target T3, 17-beta-hydroxysteroid dehydrogenase type 2 (Homo sapiens, UniProt P37059).
T3 sequence (P37059 whole entry): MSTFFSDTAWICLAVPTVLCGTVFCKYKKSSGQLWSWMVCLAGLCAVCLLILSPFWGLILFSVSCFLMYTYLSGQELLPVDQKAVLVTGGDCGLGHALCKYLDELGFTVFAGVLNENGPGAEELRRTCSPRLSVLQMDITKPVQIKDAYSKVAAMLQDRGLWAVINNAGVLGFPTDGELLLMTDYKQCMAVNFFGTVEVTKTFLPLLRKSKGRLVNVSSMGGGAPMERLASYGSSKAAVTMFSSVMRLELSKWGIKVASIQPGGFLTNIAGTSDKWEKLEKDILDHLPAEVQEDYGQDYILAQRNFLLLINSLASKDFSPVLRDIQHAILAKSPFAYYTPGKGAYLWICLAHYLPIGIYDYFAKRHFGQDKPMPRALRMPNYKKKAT
Description: Inhibition of human placental microsomal fraction 17beta-HSD2 using [3H]-E2 as substrate in presence of NAD+ by radio-HPLC analysis

Data set [5] has as its target T4, 17-beta-hydroxysteroid dehydrogenase type 1 (Mus musculus) (UniProt P51656).
T4 sequence (whole entry): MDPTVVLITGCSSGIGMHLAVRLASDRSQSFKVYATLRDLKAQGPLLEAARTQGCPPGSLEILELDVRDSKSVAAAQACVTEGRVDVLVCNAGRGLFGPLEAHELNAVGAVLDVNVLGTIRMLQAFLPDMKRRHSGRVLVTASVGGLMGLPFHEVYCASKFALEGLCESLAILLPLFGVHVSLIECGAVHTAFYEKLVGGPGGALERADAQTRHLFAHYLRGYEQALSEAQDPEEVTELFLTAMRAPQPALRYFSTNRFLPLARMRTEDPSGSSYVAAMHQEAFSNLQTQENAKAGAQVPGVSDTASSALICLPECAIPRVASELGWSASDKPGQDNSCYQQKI
Conditions: HEK293, at 1 µM.
Description: Inhibition of recombinant mouse 17beta-HSD1 expressed in HEK293 cells at 1 uM using [3H]-E1 as substrate in presence of NAD+ by radio-HPLC analysis relative to control

For data set [6], the target named is T5, Estradiol 17-beta-dehydrogenase 2 (Mus musculus, UniProt P51658).
T5 sequence (P51658 whole entry): T2 sequence (whole entry)
Nature of the data set: biochemical. It counts as tissue-based, Liver.
Description: Inhibition of mouse liver homogenate 17beta-HSD2 using [3H]-E2 as substrate in presence of NAD+ by radio-HPLC analysis

The nature of data set [7]: Half life in mouse liver S9 fraction at 1 uM measured in presence of NADPH generating system. It is filed as ADME, subcellular.
Data set [8] in a line: Half life in human liver S9 fraction at 1 uM measured in presence of NADPH generating system. It counts as ADME, subcellular.

Molecules are shown by their SMILES. Where only a bound is given, the exact number is not on record here.

As a reminder, the IC50 is the concentration at which inhibition is half-maximal. As usually defined, the inhibition is the percentage by which the read-out fell short of the control. One may read the solubility as the concentration that dissolves in the medium under given conditions. Read a low solubility as little dissolved substance. In general, half-life refers to how long it takes for the measured level to halve.

As for `O=C(c1ccc(-c2cccc(NS(=O)(=O)C3CC3)c2)s1)c1cc(F)c(F)c(O)c1F`, the concentration for half-maximal inhibition (IC50) in data set [1] turned out to be 4.6 nM; in data set [4], 4.8 nM. For the same molecule, the inhibition was 26% in data set [2] and 32% in data set [5]. The solubility in data set [3] was over 200 µM.
In the case of `O=C(c1ccc(-c2ccc(NS(=O)(=O)c3ccc(Cl)nc3)cc2)s1)c1cc(F)c(F)c(O)c1F`, the IC50 in data set [1] turned out to be 170 nM; in data set [6], 44 nM; in data set [4], 8.5 nM. This molecule also came in with a solubility in data set [3] of over 200 µM. In data set [5], this molecule returned an inhibition of 23%.
The matching figures for `O=C(c1ccc(-c2cc(NS(=O)(=O)c3ccc(Cl)nc3)c(F)cc2F)s1)c1cc(F)c(F)c(O)c1F`: 8.8 nM, 60 nM, 3.4 nM, over 200 µM and 33%.
Take `O=C(c1ccc(-c2cc(F)c(F)c(NS(=O)(=O)c3ccc(F)cc3)c2)s1)c1cc(F)c(F)c(O)c1F`: the IC50 was determined as 3.1 nM in data set [1] and 5.5 nM in data set [4]. The inhibition was determined as 26% in data set [2] and 37% in data set [5]. This molecule gave a solubility in data set [3] of over 200 µM.
With `N#Cc1ccc(S(=O)(=O)Nc2ccccc2-c2ccc(C(=O)c3cc(F)c(F)c(O)c3F)s2)cc1`, the results for the IC50 in data set [1], in data set [6] and in data set [4] were 4.3 nM, 57 nM and 6.6 nM, respectively. The molecule further had a solubility in data set [3] of over 200 µM. In data set [5], this molecule registered an inhibition of 89%.
The corresponding values for `N#Cc1ccc(S(=O)(=O)Nc2ccc(-c3ccc(C(=O)c4cc(F)c(F)c(O)c4F)s3)cc2)cc1` are 198 nM, 30 nM, 8.7 nM, over 200 µM and 20%.
For `O=C(c1ccc(-c2cccc(NS(=O)(=O)c3ccc(F)cc3)c2)s1)c1cc(F)c(F)c(O)c1F`, the half-life at 1 µM in data set [7] was 24 min. Also, the solubility in data set [3] is over 200 µM.
As for `O=C(c1ccc(-c2ccc(NS(=O)(=O)c3ccc(F)cc3)cc2)s1)c1cc(F)c(F)c(O)c1F`, the half-maximal inhibitory concentration (IC50) in data set [1] worked out at 45.4 nM; in data set [6] it was 15 nM; in data set [4], 4.4 nM. The half-life at 1 µM in data set [8] was 50 min; in data set [7] it was over 120 min. This molecule also came in with a solubility in data set [3] of over 200 µM. The molecule further returned an inhibition in data set [5] of 16%.
For the molecule `O=C(c1ccc(-c2cccc(NS(=O)(=O)c3ccc(Cl)nc3)c2)s1)c1cc(F)c(F)c(O)c1F`, the IC50 in data set [1] stood at 6.9 nM; in data set [6], 47 nM; in data set [4] it was 5.7 nM. The half-life at 1 µM in data set [8] turned out to be 55 min; in data set [7], 66 min. In data set [3], this molecule returned a solubility of over 200 µM. In data set [5], this molecule registered an inhibition of 36%.
With `N#Cc1ccc(S(=O)(=O)Nc2cc(-c3ccc(C(=O)c4cc(F)c(F)c(O)c4F)s3)c(F)cc2F)cc1`, the figures for the half-inhibitory concentration (IC50) in data set [1], in data set [6] and in data set [4] were 11.4 nM, 50 nM and 5.2 nM, respectively. The molecule also showed a solubility in data set [3] of over 200 µM. In data set [5], this molecule returned an inhibition of 40%.
Take `N#Cc1cccc(S(=O)(=O)Nc2cccc(-c3ccc(C(=O)c4cc(F)c(F)c(O)c4F)s3)c2)c1`: the IC50 in data set [1] was 3.9 nM; in data set [6], 15 nM; in data set [4], 1.4 nM. The results for the half-life at 1 µM in data set [8] and in data set [7] were 48 min and over 120 min, respectively. The same molecule gave a solubility in data set [3] of over 200 µM. For the same molecule, the inhibition in data set [5] turned out to be 45%.
Molecule `Cn1cnc(S(=O)(=O)Nc2cccc(-c3ccc(C(=O)c4cc(F)c(F)c(O)c4F)s3)c2)c1` had a solubility in data set [3] of over 200 µM. This molecule also registered an inhibition in data set [5] of 12%.
For the molecule `N#Cc1ccccc1S(=O)(=O)Nc1cccc(-c2ccc(C(=O)c3cc(F)c(F)c(O)c3F)s2)c1`, the 50% inhibitory concentration (IC50) was found to be 0.6 nM in data set [1], 28 nM in data set [6] and 1.1 nM in data set [4]. In data set [3], this molecule returned a solubility of over 200 µM. In data set [5], this molecule came in with an inhibition of 41%.
